pIC50: −log10 of the molar value. Where “and” joins values, the source holds several entries; their conditions need not be identical. Equal values may be shown once. Read-outs that look alike come from different tables or passages of the source.
What was measured:
HepG-2 = assay: MTT cytotoxicity assay, HepG-2; type: cell-based; settings: Homo sapiens
Protocol: (§1) The xanthones 1–11 were tested for cytotoxicity against HeLa, A549, HCT-116, and HepG-2 human cancer cell lines and inhibition on the proliferation of the HUVEC cell line by using the MTT assay according to the described protocols.

HUVEC cell line = assay: MTT assay, inhibition of proliferation of HUVEC cell line; type: cell-based; settings: Homo sapiens, read-out: IC50 HUVEC
Protocol: as §1

HUVEC = HUVEC wound migration assay; type: cell-based, human; settings: 0.5 μM, 24 h
Protocol: The wound migration assay was performed as previously described. HUVECs were seeded at a plating density of 2 × 10^5 per well in 6-well plates which had been coated with 1% gelatin, cells grown in DMEM medium with 10% FBS overnight. After reaching 100% confluence, the cells were then gently scraped with a plastic tip to produce a wound area. After wounding cells were incubated with fresh DMEM medium with xanthones 1, 3, 7 and 9 at a concentration of 0.5 μM, the migration and cell movement throughout the wound area was examined after 24 h.

A549 = assay: MTT cytotoxicity assay, A549; type: cell-based; settings: Homo sapiens
Protocol: as §1

HeLa = assay: MTT cytotoxicity assay, HeLa; type: cell-based; settings: Homo sapiens, read-out: IC50 HeLa
Protocol: as §1

zebrafish embryos [1] = assay: Heart rates of treated zebrafish embryos; type: in vivo, zebrafish (Danio rerio)
zebrafish embryos [2] = assay: Death rates of treated zebrafish embryos; type: in vivo, zebrafish (Danio rerio); settings: for Death Rate: eight embryos per well, control 0; for Concentration that caused the death of all zebrafish embryos: highest concentration tested
Protocol: (§2) A transgenic zebrafish line, Tg(flk1:EGFP), with the endothelial- specific flk1 promoter directing enhanced green fluorescent protein (EGFP) expression in all endothelial cells of the vasculature was used. Adult zebrafish were maintained at 28.5 °C in a recirculating aquaculture system. Zebrafish embryos were generated by natural pair-wise mating, collected in the morning and raised at 28.5 °C in embryo water (0.2 g/L of Instant Ocean Salt in distilled water). At 6 h post-fertilization (hpf), the embryos were sorted for viability and developmental stage (shield stage). The embryos were firstly placed in 24-well plates in 1 mL of embryo water with eight embryos per well. Then, the xanthones, at various concentrations, were added to embryo water of each well from the shield stage (about 6 h). Because the fish embryo receives nourishment from an attached yolk ball for the duration of the experiment, no additional maintenance was required during the duration of the experiments. After treatment with the drugs for 24 h, the embryos were anesthetized with 0.05% 2-phenoxyethanol in embryo water. One to three embryos were placed on carry sheet glass and each embryo was examined for the presence of ectopic vessels in the subintestinal vessel plexus (SIV) as an indication of antiangiogenic effect. Photographs were taken under a fluorescence microscope.

[3] = test system: zebrafish embryos Tg(flk1:EGFP); assay: Antiangiogenic activity assay on blood vessel formation in zebrafish embryos; type: in vivo, zebrafish (Danio rerio); settings: for Antiangiogenic activity to zebrafish embryos: concentrations varying from 1 μM to 16 μM; for Concentration with inhibitory effect on ISV formation (Figure 2): zebrafish embryos, 24 h, effects of 3, 7, 9 comparable to GA
Protocol: as §2

HCT-116 = assay: MTT cytotoxicity assay, HCT-116; type: cell-based; settings: Homo sapiens
Protocol: as §1

[4] = HepG2, MTT assay, 50% inhibition of cell growth, read-out: IC50 HepG-2
[5] = MTT assay, 50% inhibition of cell growth
[6] = A549, MTT assay, 50% inhibition of cell growth, read-out: IC50 A549
[7] = Tg(flk1:EGFP), zebrafish, in vivo, 24 h, 8 μM
[8] = Tg(flk1:EGFP), zebrafish, in vivo, 24 h, 16 μM
[9] = Tg(flk1:EGFP), zebrafish, in vivo, 24 h, 32 μM
[10] = HCT-116, MTT assay, 50% inhibition of cell growth, read-out: IC50 HCT-116
[11] = 2 μM, zebrafish embryos, control 21 per 10 s
[12] = 4 μM, zebrafish embryos, control 21 per 10 s
[13] = 8 μM, zebrafish embryos, control 21 per 10 s
[14] = HCT-116, read-out: IC50 HCT-116
[15] = Tg(flk1:EGFP), zebrafish, in vivo, 24 h, 2 μM
[16] = Tg(flk1:EGFP), zebrafish, in vivo, 24 h, 4 μM
[17] = 1 μM, zebrafish embryos, control 21 per 10 s

SMILES | pIC50 (HepG-2; [4]) | pIC50 (HUVEC cell line; [5]) | Inhibition of the migration of HUVEC (HUVEC) | pIC50 (A549; [6]) | pIC50 (HeLa; [5]) | Heart Rate (zebrafish embryos [1]; [7]) [per 10 s] | Death Rate (zebrafish embryos [2]; 8 μM) | Antiangiogenic activity to zebrafish embryos [3] | Concentration with inhibitory effect on ISV formation (Figure 2) [3] | pIC50 (HCT-116; [10]) | Heart Rate (zebrafish embryos [1]; [11]) [per 10 s] | Heart Rate (zebrafish embryos [1]; [12]) [per 10 s] | Heart Rate (zebrafish embryos [1]; [13]) [per 10 s] | Death Rate (zebrafish embryos [2]; 2 μM) | Death Rate (zebrafish embryos [2]; 4 μM) | Heart Rate (zebrafish embryos [1]; [15]) [per 10 s] | Heart Rate (zebrafish embryos [1]; [16]) [per 10 s] | Death Rate (zebrafish embryos [2]; 1 μM) | other results
CC(C)=CCC/C(C)=C/Cc1c(O)c(CC=C(C)C)c2c(c1O)C(=O)C1=C[C@@H]3C[C@H]4C(C)(C)O[C@@](C/C=C(/C)C=O)(C3=O)[C@@]14O2 [Xanthone 7, gambogenin] | 5.19 | 5.98 | remarkable inhibition | 5.31 | 5.49 | 6 | 0 | displayed antiangiogenic activity | 32 µM | 5.89 | – | – | – | – | – | – | – | – | Heart Rate (zebrafish embryos [1]; [8]): 6 per 10 s; Heart Rate (zebrafish embryos [1]; [9]): 5 per 10 s
CC(C)=CCc1c2c(c(O)c3c1O[C@]14C(=C[C@@H]5C[C@H]1C(C)(C)O[C@@]4(C/C=C(/C)C(=O)O)C5=O)C3=O)C=CC(C)(C)O2 [Xanthone 3, morellic acid] | – | – | remarkable inhibition | – | – | – | 8/8 | displayed antiangiogenic activity | 4 µM | – | 8 | 6 | 0 | 0 | 0 | – | – | – | pIC50 (HepG-2; HepG2, read-out: IC50 HepG-2): 4.87; pIC50 (HUVEC cell line): 5.21; pIC50 (A549; A549, read-out: IC50 A549): 4.85; pIC50 (HeLa): 4.86; Concentration that caused the death of all zebrafish embryos (zebrafish embryos [2]): 8 µM; pIC50 (HCT-116; [14]): 5.05
CC(C)=CCCC1(C)C=Cc2c(O)c3c(c(CC=C(C)C)c2O1)O[C@]12C(=C[C@@H]4C[C@H]1C(C)(C)O[C@@]2(C/C=C(\C)C(=O)O)C4=O)C3=O (stereo partly drawn) [Xanthone 8, isogambogic acid] | 5.20 | 6.04 | – | 5.54 | 5.32 | 6 | 6/8 | – | – | 5.80 | – | – | – | 0 | 1/8 | 17 | 13 | – | –
CC(C)=CCC/C(C)=C/Cc1c(O)c2c(c3c1O[C@@H](C(C)(C)O)C3)O[C@]13C(=C[C@@H]4C[C@H]1C(C)(C)O[C@@]3(C/C=C(/C)C(=O)O)C4=O)C2=O [Xanthone 4, gambogenific acid] | 4.99 | 5.61 | – | 4.95 | 5.12 | 13 | 0 | – | – | 5.35 | – | – | – | 0 | 0 | 21 | 17 | – | –
CC(C)=CCC/C(C)=C/Cc1c(O)c(CC=C(C)C)c2c(c1O)C(=O)C1=C[C@@H]3C[C@H]4C(C)(C)O[C@@](C/C=C(\C)C=O)(C3=O)[C@@]14O2 [Xanthone 6, isogambogenin] | 5.61 | 5.67 | – | 5.31 | 5.39 | 17 | 0 | – | – | 5.83 | – | – | – | – | – | – | – | – | Heart Rate (zebrafish embryos [1]; [8]): 14 per 10 s; Heart Rate (zebrafish embryos [1]; [9]): 8 per 10 s; Death Rate (zebrafish embryos [2]; 16 μM): 1/8; Death Rate (zebrafish embryos [2]; 32 μM): 4/8
CC(C)=CCc1c2c(c(O)c3c1O[C@]14C(=C[C@@H]5C[C@H]1C(C)(C)O[C@@]4(CC=C(C)C)C5=O)C3=O)C=CC(C)(C)O2 [Xanthone 10, desoxymorellin] | – | – | – | – | – | – | 0 | – | – | – | 17 | 16 | 16 | 0 | 0 | – | – | 0 | pIC50 (HepG-2; HepG2, read-out: IC50 HepG-2): 6.00; pIC50 (HUVEC cell line): 6.05; pIC50 (A549; A549, read-out: IC50 A549): 5.69; pIC50 (HeLa): 5.59; Heart Rate (zebrafish embryos [1]; [17]): 20 per 10 s; pIC50 (HCT-116; [14]): 5.92
CC(C)=CCC[C@]1(C)C=Cc2c(O)c3c(c(CC=C(C)C)c2O1)O[C@]12C(=C[C@@H]4C[C@H]1C(C)(C)O[C@@]2(C/C=C(/C)C(=O)O)C4=O)C3=O [Xanthone 1, gambogic acid] | 6.11 | 6.14 | remarkable inhibition | 5.81 | 5.80 | – | – | displayed antiangiogenic activity | 1 µM and 2 µM | 6.19 | – | – | – | 1/8 | 8/8 | 3 | 0 | 0 | Heart Rate (zebrafish embryos [1]; Tg(flk1:EGFP), zebrafish, in vivo, 24 h, 1 μM): 8 per 10 s; Concentration that caused the death of all zebrafish embryos (zebrafish embryos [2]): 4 µM
CC(C)=CCC/C(C)=C/Cc1c(O)c(CC=C(C)C)c2c(c1O)C(=O)C1=C[C@@H]3C[C@H]4C(C)(C)O[C@@](C/C=C(\C)C(=O)O)(C3=O)[C@@]14O2 [Xanthone 9, isogambogenic acid] | 5.20 | 5.76 | remarkable inhibition | 4.90 | 5.20 | – | 8/8 | displayed antiangiogenic activity | 4 µM | 4.93 | 8 | 5 | 0 | 0 | 0 | – | – | – | Concentration that caused the death of all zebrafish embryos (zebrafish embryos [2]): 8 µM
CC(C)=CCC/C(C)=C/Cc1c(O)c(CC=C(C)C)c2c(c1O)C(=O)C1=C[C@@H]3C[C@H]4C(C)(C)O[C@@](CC=C(C)C)(C3=O)[C@@]14O2 [Xanthone 11, desoxygambogenin] | – | – | – | – | – | – | 0 | – | – | – | 21 | 21 | 20 | 0 | 0 | – | – | 0 | pIC50 (HepG-2; HepG2, read-out: IC50 HepG-2): 5.94; pIC50 (HUVEC cell line): 5.80; pIC50 (A549; A549, read-out: IC50 A549): 5.74; pIC50 (HeLa): 5.53; Heart Rate (zebrafish embryos [1]; [17]): 21 per 10 s; pIC50 (HCT-116; [14]): 5.87
CC(C)=CCC/C(C)=C/Cc1c(O)c(CC=C(C)C)c2c(c1O)C(=O)C1=C[C@@H]3C[C@H]4C(C)(C)O[C@@](C/C=C(/C)C(=O)O)(C3=O)[C@@]14O2 [Xanthone 2, gambogenic acid] | 5.20 | 5.39 | – | 5.32 | 4.94 | – | – | – | – | 5.32 | 18 | 0 | – | 0 | 8/8 | – | – | 0 | Heart Rate (zebrafish embryos [1]; [17]): 21 per 10 s
CC(C)=CCc1c2c(c(O)c3c1O[C@]14C(=C[C@@H]5C[C@H]1C(C)(C)O[C@@]4(C/C=C(/C)C=O)C5=O)C3=O)C=CC(C)(C)O2 [Xanthone 5, morellin isomers] | 5.22 | 5.62 | – | 5.19 | 5.27 | 8 | 8/8 | – | – | 5.56 | – | – | – | 0 | 0 | 13 | 10 | – | –
